Data published in ChEMBL document CHEMBL4665742 (J Nat Prod, 2020).
The source made the active and inactive calls. The rule behind the calls is not given here.

Tests used:
SK-N-FI [1] = experiment: Antiproliferative activity against human SK-N-FI cells after 24 hrs; assay type: functional
SK-N-AS [2] = experiment: Antiproliferative activity against human SK-N-AS cells after 24 hrs; assay type: functional
SK-N-BE(2)-M17 [3] = experiment: Antiproliferative activity against human SK-N-BE(2)-M17 cells after 24 hrs; assay type: functional
[4] = (§1) Antiproliferative activity against human Kelly cells after 24 hrs; assay type: functional; details: read-out: ED50 (the source's name)
Kelly [5] = experiment: as §1; assay type: functional
SK-N-FI [6] = experiment: Induction of apoptosis in human SK-N-FI cells assessed as PARP cleavage at 12.5 to 50 uM after 6 to 24 hrs by […]; assay type: functional, cell-based; details: dose microM 12.5-50, time hrs 6-24
SK-N-AS [7] = experiment: Induction of apoptosis in human SK-N-AS cells assessed as PARP cleavage at 12.5 to 50 uM after 6 to 24 hrs by […]; assay type: functional, cell-based; details: dose microM 12.5-50, time hrs 6-24
SK-N-BE(2)-M17 [8] = experiment: Induction of apoptosis in human SK-N-BE(2)-M17 cells assessed as PARP cleavage at 12.5 to 50 uM after 6 to 24 hrs by […]; assay type: functional, cell-based; details: dose microM 12.5-50, time hrs 6-24
Kelly [9] = experiment: Induction of apoptosis in human Kelly cells assessed as PARP cleavage at 12.5 to 50 uM after 6 to 24 hrs by […]; assay type: functional, cell-based; details: dose microM 12.5-50, time hrs 6-24
[10] = read-out: ED50 (the source's name)

**Q.** Which results are given for `NCCCC(N)(C(=O)O)C(F)F` (stereo not given)?
**A.** Activity (SK-N-FI [1]): Dose-dependent effect; Activity (SK-N-AS [2]): Dose-dependent effect; Activity (SK-N-BE(2)-M17 [3]): Dose-dependent effect

**Q.** What does the source list for `C=CCS[S+]([O-])CC=C` (stereo not given) [ALLICIN]?
**A.** Activity (SK-N-FI [1]): Dose-dependent effect; EC50 (SK-N-FI [1]; [10]): 18.1 µM; Activity (SK-N-AS [2]): Dose-dependent effect; EC50 (SK-N-AS [2]; [10]): 19.5 µM; Activity (SK-N-BE(2)-M17 [3]): Dose-dependent effect; EC50 (SK-N-BE(2)-M17 [3]; [10]): 10.3 µM; EC50 [4]: 9.21 µM; Activity (Kelly [5]): Dose-dependent effect; Activity (SK-N-FI [6]): Active; Activity (SK-N-AS [7]): Active; Activity (SK-N-BE(2)-M17 [8]): Active; Activity (Kelly [9]): Active
